These compounds were tested against T1, S1P1 receptor (human Endothelial Differentiation Gene 1 (EDG1)) (Homo sapiens, UniProt P21453) (assay: S1P1 Tango Assay - 384 Well Format (EDG1-bla/U2OS cells)). Conditions: agonist, beta-lactamase reporter.
T1 construct: TEV protease site; Gal4-VP16 transcription factor; expressed in transfected cells; host or cells: Tango GPCR-bla U2OS parental cell line (EDG1-bla/U2OS)
Type: cell-based
Method: Recombinant EDG1-bla/U2OS cells (contain the human Endothelial Differentiation Gene 1 (EDG1) linked to a TEV protease site and a Gal4-VP16 transcription factor stably integrated into the Tango GPCR-bla U2OS parental cell line) were harvested from growth medium and passaged into assay medium (Invitrogen Freestyle Expression Medium). The cells were starved for 24 hours at 37° C., 5% CO2, harvested and resuspended in assay medium at a density of ˜200,000 cells/ml.
All test compounds were dissolved in DMSO at a concentration of 10 mM and were prepared in 100% DMSO to provide 10 point dose response curves. Test compounds prepared by Bravo (Velocity 11) were added to wells in columns 2-11 and 13-22; DMSO was added to wells in columns 12 and 23 as unstimulated controls and assay medium was added to wells in columns 1 and 24 as cell-free controls. An S1P1 agonist was added to wells in row 2, columns 2-11 as stimulated controls and test compounds were added to wells in row 2, columns 13-22 and rows 3-15, columns 2-11/13-22 (row 1 and 16 were empty and not used). Compounds in solution were added to the assay plate (Greiner 781090) using an Echo (Labcyte) dose-response program (50 nl/well). The unstimulated and cell-free controls were loaded with 50 nl/well pure DMSO to ensure that the DMSO concentration was constant across the plate for all assays.
50 μl of the cell suspension was added to each well in columns 2-23 of the plate (˜10,000 cells per well). 50 μl of assay medium was added to each well in the cell-free controls (columns 1 and 24). The cells were incubated overnight at 37° C./5% CO2.
10 μl of 6× substrate mixture (LiveBLAzer™-FRET B/G substrate (CCF4-AM) Cat # K1096 from Invitrogen, Inc.) was added to each well using Bravo and the plates incubated at room temperature for 2 h in the dark. The plate was finally read on EnVision using one excitation channel (409 nm) and two emission channels (460 nm and 530 nm).
The blue/green emission ratio (460 nm/530 nm) was calculated for each well, by dividing the background-subtracted Blue emission values by the background-subtracted Green emission values. The dose response curve is based on sigmoidal dose-response model. All ratio data was normalized based upon the maximum emission ratio of positive control and minimum emission ratio of negative control (DMSO) on each plate. The intrinsic activity (IA) of each compound would be the normalized percentage of its maximum response after curve fitting.

T1 sequence (P21453 whole entry, the tested form may be a part): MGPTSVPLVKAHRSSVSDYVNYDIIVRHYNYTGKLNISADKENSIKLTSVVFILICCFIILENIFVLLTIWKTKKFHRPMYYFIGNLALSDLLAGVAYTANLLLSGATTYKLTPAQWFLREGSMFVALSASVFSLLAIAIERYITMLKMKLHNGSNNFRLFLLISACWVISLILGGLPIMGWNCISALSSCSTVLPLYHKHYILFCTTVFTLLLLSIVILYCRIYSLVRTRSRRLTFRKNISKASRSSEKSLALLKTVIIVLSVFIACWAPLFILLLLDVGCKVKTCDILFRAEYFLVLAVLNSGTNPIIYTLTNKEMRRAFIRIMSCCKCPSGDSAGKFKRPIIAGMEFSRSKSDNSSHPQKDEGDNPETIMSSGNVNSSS

| Structure (SMILES) | EC50 [nM] |
| --- | --- |
| CCc1cc(OCCCNC)ccc1-c1noc(-c2ccc(OC(C)C)c(C#N)c2)n1 [Example 39, 5-[3-(2-ethyl-4-{[3-(methylamino)propyl]oxy}phenyl)-1,2,4-oxadiazol-5-yl]-2-[(1-methylethyl)oxy]benzonitrile] | ≤ 1 |
| CNCCCCOc1ccc(-c2noc(-c3ccc(OC(C)C)c(C#N)c3)n2)c(Cl)c1 [Example 21, 5-[3-(2-chloro-4-{[4-(methylamino)butyl]oxy}phenyl)-1,2,4-oxadiazol-5-yl]-2-[(1-methylethyl)oxy]benzonitrile] | ≤ 1 |
| CCc1cc(OCC(=O)O)ccc1-c1noc(-c2ccc(OC(C)C)c(C#N)c2)n1 [Example 27, {[4-(5-{3-cyano-4-[(1-methylethyl)oxy]phenyl}-1,2,4-oxadiazol-3-yl)-3-ethylphenyl]oxy}acetic acid] | ≤ 1 |
| CCc1cc(OCCCNC)ccc1-c1nnc(-c2ccc(OC(C)C)c(C#N)c2)o1 [Example 14, 5-[5-(2-ethyl-4-{[3-(methylamino)propyl]oxy}phenyl)-1,3,4-oxadiazol-2-yl]-2-[(1-methylethyl)oxy]benzonitrile] | ≤ 100 |
| CCc1cc(OCCNC)ccc1-c1noc(-c2ccc(OC(C)C)c(Cl)c2)n1 [Example 26, (2-{[4-(5-{3-chloro-4-[(1-methylethyl)oxy]phenyl}-1,2,4-oxadiazol-3-yl)-3-ethylphenyl]oxy}ethyl)methylamine] | ≤ 10 |
| COc1cc(OCCCCC(=O)O)ccc1-c1noc(-c2ccc(OC(C)C)c(C#N)c2)n1 [Example 12, 5-{[4-(5-{3-Cyano-4-[(1-methylethyl)oxy]phenyl}-1,2,4-oxadiazol-3-yl)-3-(methyloxy)phenyl]oxy}pentanoic acid] | ≤ 1 |
| CCc1cc(OCCCCC(=O)O)ccc1-c1noc(-c2ccc(OC(C)C)c(C#N)c2)n1 [Example 31, 5-{[4-(5-{3-cyano-4-[(1-methylethyl)oxy]phenyl}-1,2,4-oxadiazol-3-yl)-3-ethylphenyl]oxy}pentanoic acid] | ≤ 0.1 |
| COCCOc1ccc(-c2noc(-c3ccc(OC(C)C)c(Cl)c3)n2)c(C)c1 [Example 6, 5-{3-Chloro-4-[(1-methylethyl)oxy]phenyl}-3-(2-methyl-4-{[2-(methyloxy)ethyl]oxy}phenyl)-1,2,4-oxadiazole] | ≤ 10 |
| CCc1cc(OCCCC(=O)O)ccc1-c1cnc(-c2ccc(OC(C)C)c(C#N)c2)s1 [Example 43, 4-{[4-(2-{3-cyano-4-[(1-methylethyl)oxy]phenyl}-1,3-thiazol-5-yl)-3-ethylphenyl]oxy}butanoic acid] | ≤ 1 |
| CCNCCCCOc1ccc(-c2noc(-c3ccc(OC(C)C)c(C#N)c3)n2)c(Cl)c1 [Example 20, 5-[3-(2-chloro-4-{[4-(ethylamino)butyl]oxy}phenyl)-1,2,4-oxadiazol-5-yl]-2-[(1-methylethyl)oxy]benzonitrile] | ≤ 10 |
| CC(C)Oc1ccc(-c2nc(-c3ccc(OCCCCC(=O)O)cc3)no2)cc1C#N [Example 8, 5-{[4-(5-{3-Cyano-4-[(1-methylethyl)oxy]phenyl}-1,2,4-oxadiazol-3-yl)phenyl]oxy}pentanoic acid] | ≤ 1 |
| CC(C)Oc1ccc(-c2nc(-c3ccc(OCCCC(=O)O)cc3Cl)no2)cc1C#N [Example 10, 4-{[3-Chloro-4-(5-{3-cyano-4-[(1-methylethyl)oxy]phenyl}-1,2,4-oxadiazol-3-yl)phenyl]oxy}butanoic acid] | ≤ 0.1 |
| CNCCCOc1ccc(-c2noc(-c3ccc(OC(C)C)c(C#N)c3)n2)c(Cl)c1 [Example 37, 5-[3-(2-chloro-4-{[3-(methylamino)propyl]oxy}phenyl)-1,2,4-oxadiazol-5-yl]-2-[(1-methylethyl)oxy]benzonitrile] | ≤ 1 |
| CC(C)Oc1ccc(-c2nc(-c3ccc(OCCCC(=O)O)cc3F)no2)cc1C#N [Example 22, 4-{[4-(5-{3-cyano-4-[(1-methylethyl)oxy]phenyl}-1,2,4-oxadiazol-3-yl)-3-fluorophenyl]oxy}butanoic acid] | ≤ 0.1 |
| CCc1cc(OCCCCC(=O)O)ccc1-c1noc(-c2ccc(OC(C)C)c(Cl)c2)n1 [Example 29, 5-{[4-(5-{3-chloro-4-[(1-methylethyl)oxy]phenyl}-1,2,4-oxadiazol-3-yl)-3-ethylphenyl]oxy}pentanoic acid] | ≤ 1 |

Source: patent US20120101136A1, “5-MEMBERED HETEROARYL DERIVATIVES USED AS SPHINGOSINE 1- PHOSPHATE RECEPTOR AGONISTS” (GLAXO GROUP LIMITED, priority 2009, published 2012)
